Calls of active or inactive are those of the source.
Key:
[1] = biological target: Mitogen-activated protein kinase 14 (Homo sapiens) (UniProt Q16539); settings: Compound concentration 1000.0 nM
[2] = biological target: D(2) dopamine receptor (Homo sapiens) (UniProt P14416); settings: Compound concentration 10.0 uM
[3] = biological target: Serine/threonine-protein kinase NIM1 (Homo sapiens) (UniProt Q8IY84); settings: Compound concentration 1000.0 nM
[4] = biological target: Peripheral plasma membrane protein CASK (Homo sapiens) (UniProt O14936); settings: Compound concentration 1000.0 nM
[5] = biological target: Interferon-induced, double-stranded RNA-activated protein kinase (Homo sapiens) (UniProt P19525); settings: Compound concentration 1000.0 nM
Interferon-induced, double-stranded RNA-activated protein kinase (Homo sapiens), sequence (P19525 whole entry): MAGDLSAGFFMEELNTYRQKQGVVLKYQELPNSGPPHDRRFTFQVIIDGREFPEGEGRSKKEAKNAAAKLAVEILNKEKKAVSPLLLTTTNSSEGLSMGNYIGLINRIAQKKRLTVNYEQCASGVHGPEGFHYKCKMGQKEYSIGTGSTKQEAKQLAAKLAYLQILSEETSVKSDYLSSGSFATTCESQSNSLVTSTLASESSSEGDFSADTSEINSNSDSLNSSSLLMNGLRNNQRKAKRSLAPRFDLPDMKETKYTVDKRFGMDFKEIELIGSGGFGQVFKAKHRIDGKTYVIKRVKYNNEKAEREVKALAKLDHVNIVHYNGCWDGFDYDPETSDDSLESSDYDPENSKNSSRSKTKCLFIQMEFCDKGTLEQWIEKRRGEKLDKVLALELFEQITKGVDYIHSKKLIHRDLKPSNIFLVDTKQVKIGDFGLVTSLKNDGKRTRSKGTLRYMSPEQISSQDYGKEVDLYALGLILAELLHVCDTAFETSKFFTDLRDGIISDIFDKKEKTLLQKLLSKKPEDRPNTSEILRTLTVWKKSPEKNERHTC

[6] = biological target: Serine/threonine-protein kinase TAO1 (Homo sapiens) (UniProt Q7L7X3); settings: Compound concentration 1000.0 nM
[7] = biological target: Tyrosine-protein kinase receptor UFO (Homo sapiens) (UniProt P30530); settings: Compound concentration 1000.0 nM
[8] = biological target: Calcium/calmodulin-dependent protein kinase type II subunit beta (Homo sapiens) (UniProt Q13554); settings: Compound concentration 1000.0 nM
Integrin alpha-L = Integrin alpha-L (Homo sapiens, UniProt P20701); assay: ITGAL binding assay
[9] = biological target: Serine/threonine-protein kinase PLK4 (Homo sapiens) (UniProt O00444); settings: Compound concentration 1000.0 nM
[10] = biological target: Receptor-interacting serine/threonine-protein kinase 4 (Homo sapiens) (UniProt P57078); settings: Compound concentration 1000.0 nM
Receptor-interacting serine/threonine-protein kinase 4 (Homo sapiens), sequence (P57078 whole entry): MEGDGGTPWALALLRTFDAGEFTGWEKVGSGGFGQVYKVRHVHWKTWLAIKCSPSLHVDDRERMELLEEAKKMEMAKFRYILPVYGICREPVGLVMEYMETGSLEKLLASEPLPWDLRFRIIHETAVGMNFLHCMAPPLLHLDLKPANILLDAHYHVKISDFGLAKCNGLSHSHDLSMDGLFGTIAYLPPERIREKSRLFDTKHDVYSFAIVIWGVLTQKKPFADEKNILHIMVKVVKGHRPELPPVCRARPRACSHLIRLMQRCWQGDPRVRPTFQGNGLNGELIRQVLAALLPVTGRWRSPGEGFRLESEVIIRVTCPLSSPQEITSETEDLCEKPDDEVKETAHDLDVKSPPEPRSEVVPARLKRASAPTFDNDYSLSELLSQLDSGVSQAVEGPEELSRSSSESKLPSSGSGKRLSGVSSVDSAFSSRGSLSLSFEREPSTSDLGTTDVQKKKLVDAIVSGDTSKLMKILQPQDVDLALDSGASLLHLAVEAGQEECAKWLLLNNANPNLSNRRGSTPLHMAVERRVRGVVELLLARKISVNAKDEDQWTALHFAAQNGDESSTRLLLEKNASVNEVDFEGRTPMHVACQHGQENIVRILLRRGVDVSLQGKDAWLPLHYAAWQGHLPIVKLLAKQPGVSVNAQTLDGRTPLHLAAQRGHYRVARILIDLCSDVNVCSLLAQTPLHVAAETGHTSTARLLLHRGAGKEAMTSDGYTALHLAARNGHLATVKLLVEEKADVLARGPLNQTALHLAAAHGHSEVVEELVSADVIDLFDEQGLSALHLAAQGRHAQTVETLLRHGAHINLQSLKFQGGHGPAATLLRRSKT

[11] = biological target: Cyclin-dependent kinase 4 (Homo sapiens) (UniProt P11802); settings: Compound concentration 1000.0 nM
[12] = tested on: ALK tyrosine kinase receptor (Homo sapiens), Q9UM73 [L1196M]; settings: Compound concentration 1000.0 nM
[13] = biological target: Mitotic checkpoint serine/threonine-protein kinase BUB1 (Homo sapiens) (UniProt O43683); settings: Compound concentration 1000.0 nM
[14] = biological target: Tyrosine-protein kinase Fyn (Homo sapiens) (UniProt P06241); settings: Compound concentration 1000.0 nM
[15] = biological target: Tyrosine-protein kinase ABL1 (Homo sapiens) (UniProt P00519); settings: Compound concentration 1000.0 nM
[16] = biological target: Calcium-dependent protein kinase 1 (Plasmodium falciparum) (UniProt P62344); settings: Compound concentration 1000.0 nM
[17] = tested on: Phosphatidylinositol 4,5-bisphosphate 3-kinase catalytic subunit alpha isoform (Homo sapiens), P42336 [E545A]; settings: Compound concentration 1000.0 nM
[18] = biological target: Alpha-2B adrenergic receptor (Homo sapiens) (UniProt P18089); settings: Compound concentration 10.0 uM
Alpha-2B adrenergic receptor (Homo sapiens), sequence (P18089 whole entry): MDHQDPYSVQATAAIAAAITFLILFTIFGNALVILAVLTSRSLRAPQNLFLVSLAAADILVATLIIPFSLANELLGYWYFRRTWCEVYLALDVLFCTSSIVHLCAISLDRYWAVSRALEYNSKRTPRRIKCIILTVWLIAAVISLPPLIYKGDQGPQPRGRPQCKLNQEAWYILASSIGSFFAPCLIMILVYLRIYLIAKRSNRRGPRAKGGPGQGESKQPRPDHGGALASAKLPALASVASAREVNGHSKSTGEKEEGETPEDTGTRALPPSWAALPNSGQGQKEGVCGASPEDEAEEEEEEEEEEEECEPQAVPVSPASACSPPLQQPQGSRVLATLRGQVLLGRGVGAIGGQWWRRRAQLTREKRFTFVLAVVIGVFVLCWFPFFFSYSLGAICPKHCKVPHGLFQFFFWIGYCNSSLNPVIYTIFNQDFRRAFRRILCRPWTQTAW

[19] = biological target: Non-receptor tyrosine-protein kinase TNK1 (Homo sapiens) (UniProt Q13470); settings: Compound concentration 1000.0 nM
[20] = biological target: Ribosomal protein S6 kinase alpha-2 (Homo sapiens) (UniProt Q15349); settings: Compound concentration 1000.0 nM
Ribosomal protein S6 kinase alpha-2 (Homo sapiens), sequence (Q15349 whole entry): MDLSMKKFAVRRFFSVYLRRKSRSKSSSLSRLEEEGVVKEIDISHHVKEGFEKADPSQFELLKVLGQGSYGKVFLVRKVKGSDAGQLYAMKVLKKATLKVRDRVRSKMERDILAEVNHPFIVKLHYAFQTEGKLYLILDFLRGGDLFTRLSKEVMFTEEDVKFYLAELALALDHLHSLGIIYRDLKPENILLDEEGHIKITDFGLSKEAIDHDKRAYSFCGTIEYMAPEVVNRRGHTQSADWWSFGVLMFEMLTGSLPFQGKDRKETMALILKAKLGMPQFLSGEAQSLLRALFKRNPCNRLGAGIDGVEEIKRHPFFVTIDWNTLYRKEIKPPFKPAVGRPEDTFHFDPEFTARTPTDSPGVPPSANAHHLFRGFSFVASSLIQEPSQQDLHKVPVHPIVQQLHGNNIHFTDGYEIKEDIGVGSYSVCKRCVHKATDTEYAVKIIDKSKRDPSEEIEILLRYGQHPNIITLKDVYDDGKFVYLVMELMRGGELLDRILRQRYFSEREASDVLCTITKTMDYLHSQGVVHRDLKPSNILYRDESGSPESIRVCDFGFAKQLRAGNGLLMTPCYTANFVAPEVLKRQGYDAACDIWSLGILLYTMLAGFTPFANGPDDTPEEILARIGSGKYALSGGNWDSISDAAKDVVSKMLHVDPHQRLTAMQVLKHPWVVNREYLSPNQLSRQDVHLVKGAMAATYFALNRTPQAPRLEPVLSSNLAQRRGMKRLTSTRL

[21] = biological target: G protein-coupled receptor kinase 3 (Homo sapiens) (UniProt P35626); settings: Compound concentration 1000.0 nM
[22] = biological target: Macrophage-stimulating protein receptor (Homo sapiens) (UniProt Q04912); settings: Compound concentration 1000.0 nM
[23] = biological target: Phosphatidylinositol 4,5-bisphosphate 3-kinase catalytic subunit beta isoform (Homo sapiens) (UniProt P42338); settings: Compound concentration 1000.0 nM
Phosphatidylinositol 4,5-bisphosphate 3-kinase catalytic subunit beta isoform (Homo sapiens), sequence (P42338 whole entry, looked up, canonical isoform): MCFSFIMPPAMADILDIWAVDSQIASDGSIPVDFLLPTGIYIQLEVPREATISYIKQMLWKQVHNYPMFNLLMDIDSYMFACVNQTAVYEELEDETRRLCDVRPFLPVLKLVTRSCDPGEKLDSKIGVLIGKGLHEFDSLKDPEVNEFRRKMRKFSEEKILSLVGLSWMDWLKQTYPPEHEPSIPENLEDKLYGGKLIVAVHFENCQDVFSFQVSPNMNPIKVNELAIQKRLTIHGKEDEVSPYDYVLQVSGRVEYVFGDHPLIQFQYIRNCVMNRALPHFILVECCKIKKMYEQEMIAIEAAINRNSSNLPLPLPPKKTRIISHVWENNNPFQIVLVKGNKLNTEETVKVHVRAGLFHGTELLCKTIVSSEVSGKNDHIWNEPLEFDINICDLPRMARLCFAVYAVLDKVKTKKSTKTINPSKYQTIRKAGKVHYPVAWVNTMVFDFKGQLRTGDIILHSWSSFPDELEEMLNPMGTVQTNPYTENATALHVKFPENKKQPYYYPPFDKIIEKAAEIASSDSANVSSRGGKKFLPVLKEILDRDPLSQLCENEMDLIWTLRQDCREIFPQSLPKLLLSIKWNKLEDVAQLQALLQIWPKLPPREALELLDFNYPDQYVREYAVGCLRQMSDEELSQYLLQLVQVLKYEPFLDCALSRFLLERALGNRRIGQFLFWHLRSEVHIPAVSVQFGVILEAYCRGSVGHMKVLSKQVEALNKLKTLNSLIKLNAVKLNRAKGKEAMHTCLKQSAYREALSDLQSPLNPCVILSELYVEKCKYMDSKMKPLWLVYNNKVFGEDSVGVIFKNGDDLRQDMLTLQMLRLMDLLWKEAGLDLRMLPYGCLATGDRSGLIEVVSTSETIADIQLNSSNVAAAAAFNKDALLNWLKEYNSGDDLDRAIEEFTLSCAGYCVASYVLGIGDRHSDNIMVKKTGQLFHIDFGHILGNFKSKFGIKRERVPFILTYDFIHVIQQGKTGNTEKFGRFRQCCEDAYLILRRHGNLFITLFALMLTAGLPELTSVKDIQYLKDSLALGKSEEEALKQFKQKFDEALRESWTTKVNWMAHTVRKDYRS

[24] = biological target: Mitogen-activated protein kinase kinase kinase 11 (Homo sapiens) (UniProt Q16584); settings: Compound concentration 1000.0 nM
[25] = tested on: Receptor-type tyrosine-protein kinase FLT3 (Homo sapiens), P36888 [UNDEFINED MUTATION]; settings: Compound concentration 1000.0 nM
[26] = biological target: Dual specificity tyrosine-phosphorylation-regulated kinase 2 (Homo sapiens) (UniProt Q92630); settings: Compound concentration 1000.0 nM
[27] = biological target: Activin receptor type-1 (Homo sapiens) (UniProt Q04771); settings: Compound concentration 1000.0 nM
[28] = biological target: Ephrin type-A receptor 4 (Homo sapiens) (UniProt P54764); settings: Compound concentration 1000.0 nM
[29] = biological target: Sigma intracellular receptor 2 (Homo sapiens, UniProt Q5BJF2); settings: Compound concentration 10.0 uM
[30] = biological target: Tyrosine-protein kinase Tec (Homo sapiens) (UniProt P42680); settings: Compound concentration 1000.0 nM
[31] = biological target: Microtubule-associated serine/threonine-protein kinase 1 (Homo sapiens) (UniProt Q9Y2H9); settings: Compound concentration 1000.0 nM
[32] = biological target: Tyrosine-protein kinase Blk (Homo sapiens) (UniProt P51451); settings: Compound concentration 1000.0 nM
[33] = biological target: Tyrosine-protein kinase Srms (Homo sapiens) (UniProt Q9H3Y6); settings: Compound concentration 1000.0 nM
[34] = tested on: Epidermal growth factor receptor (Homo sapiens), P00533 [UNDEFINED MUTATION]; settings: Compound concentration 1000.0 nM
[35] = tested on: Proto-oncogene tyrosine-protein kinase receptor Ret (Homo sapiens), P07949 [M918T]; settings: Compound concentration 1000.0 nM
Proto-oncogene tyrosine-protein kinase receptor Ret (Homo sapiens), P07949 [M918T], sequence (P07949 whole entry M918T): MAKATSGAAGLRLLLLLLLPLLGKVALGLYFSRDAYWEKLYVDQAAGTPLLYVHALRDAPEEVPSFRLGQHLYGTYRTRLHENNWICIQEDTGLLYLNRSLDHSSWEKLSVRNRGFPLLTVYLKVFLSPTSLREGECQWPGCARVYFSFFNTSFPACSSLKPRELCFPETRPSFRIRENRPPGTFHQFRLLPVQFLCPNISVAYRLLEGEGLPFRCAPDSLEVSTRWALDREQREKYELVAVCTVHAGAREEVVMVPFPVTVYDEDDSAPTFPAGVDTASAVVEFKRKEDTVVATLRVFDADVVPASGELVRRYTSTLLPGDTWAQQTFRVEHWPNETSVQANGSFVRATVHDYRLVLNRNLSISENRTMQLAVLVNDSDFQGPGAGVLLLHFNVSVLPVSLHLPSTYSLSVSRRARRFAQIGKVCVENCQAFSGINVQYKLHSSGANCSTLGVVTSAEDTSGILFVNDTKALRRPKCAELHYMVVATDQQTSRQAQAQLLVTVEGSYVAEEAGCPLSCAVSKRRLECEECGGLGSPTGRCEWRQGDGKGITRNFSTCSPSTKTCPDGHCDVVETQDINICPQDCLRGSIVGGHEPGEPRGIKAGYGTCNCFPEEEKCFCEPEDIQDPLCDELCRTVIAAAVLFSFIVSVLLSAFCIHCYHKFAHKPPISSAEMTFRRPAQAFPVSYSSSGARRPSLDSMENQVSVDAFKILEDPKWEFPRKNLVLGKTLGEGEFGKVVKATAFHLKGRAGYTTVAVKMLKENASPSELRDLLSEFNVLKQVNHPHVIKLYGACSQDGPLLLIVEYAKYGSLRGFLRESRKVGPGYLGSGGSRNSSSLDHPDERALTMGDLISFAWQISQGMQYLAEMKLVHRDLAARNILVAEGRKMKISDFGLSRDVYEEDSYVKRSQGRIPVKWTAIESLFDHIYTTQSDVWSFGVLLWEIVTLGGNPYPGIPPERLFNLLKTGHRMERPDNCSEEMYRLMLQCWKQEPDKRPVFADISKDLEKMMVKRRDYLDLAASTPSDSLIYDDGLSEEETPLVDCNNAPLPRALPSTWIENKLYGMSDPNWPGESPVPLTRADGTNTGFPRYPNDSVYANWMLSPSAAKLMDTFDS

[36] = biological target: Homeodomain-interacting protein kinase 1 (Homo sapiens) (UniProt Q86Z02); settings: Compound concentration 1000.0 nM
[37] = tested on: Tyrosine-protein kinase ABL1 (Homo sapiens), P00519 [F317L]; settings: Compound concentration 1000.0 nM
[38] = biological target: Insulin-like growth factor 1 receptor (Homo sapiens) (UniProt P08069); settings: Compound concentration 1000.0 nM
[39] = tested on: Fibroblast growth factor receptor 3 (Homo sapiens), P22607 [G697C]; settings: Compound concentration 1000.0 nM
[40] = biological target: Serine/threonine-protein kinase haspin (Homo sapiens) (UniProt Q8TF76); settings: Compound concentration 1000.0 nM
[41] = biological target: MAP/microtubule affinity-regulating kinase 3 (Homo sapiens) (UniProt P27448); settings: Compound concentration 1000.0 nM
[42] = biological target: Serine/threonine-protein kinase RIO2 (Homo sapiens) (UniProt Q9BVS4); settings: Compound concentration 1000.0 nM
[43] = biological target: Cyclin-dependent kinase 5 (Homo sapiens) (UniProt Q00535); settings: Compound concentration 1000.0 nM
Cyclin-dependent kinase 5 (Homo sapiens), sequence (Q00535 whole entry, looked up): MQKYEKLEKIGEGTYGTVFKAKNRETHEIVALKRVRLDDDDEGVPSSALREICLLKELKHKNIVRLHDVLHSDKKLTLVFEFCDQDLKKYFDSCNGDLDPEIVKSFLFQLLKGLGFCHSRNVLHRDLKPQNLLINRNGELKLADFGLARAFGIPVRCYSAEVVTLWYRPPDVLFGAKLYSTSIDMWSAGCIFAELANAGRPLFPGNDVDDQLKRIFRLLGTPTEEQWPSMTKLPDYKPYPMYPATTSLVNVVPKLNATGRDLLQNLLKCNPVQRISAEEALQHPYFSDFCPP

[44] = biological target: Ribosomal protein S6 kinase alpha-2 (Homo sapiens) (UniProt Q15349); settings: Compound concentration 1000.0 nM; remark: listed apart in the source

C[C@H](NC(=O)c1cnc2n1[C@](C)(Cc1ccc(C#N)cc1)C(=O)N2c1cc(Cl)c(F)c(Cl)c1)C(=O)NC1(c2ccccn2)CC1 [BI 1950]
inactive: residual activity [1] 100% | inhibition [2] 7.62% | residual activity [3] 100% | residual activity [4] 100% | residual activity [6] 86% | residual activity [7] 100% | residual activity [8] 100% | residual activity [9] 88% | residual activity [10] 100% | residual activity [11] 100% | residual activity [12] 100% | residual activity [13] 100% | residual activity [14] 70% | residual activity [15] 99% | residual activity [16] 100% | residual activity [17] 100% | inhibition [18] -3.79% | residual activity [19] 88% | residual activity [20] 94% | residual activity [21] 100% | residual activity [22] 100% | residual activity [23] 99% | residual activity [24] 100% | residual activity [25] 100% | residual activity [26] 98% | residual activity [27] 97% | residual activity [28] 100% | inhibition [29] 25.9% | residual activity [30] 75% | residual activity [31] 100% | residual activity [32] 98% | residual activity [33] 100% | residual activity [34] 100% | residual activity [35] 100% | residual activity [36] 97% | residual activity [37] 100% | residual activity [38] 99% | residual activity [39] 100% | residual activity [40] 100% | residual activity [41] 92% | residual activity [42] 100% | residual activity [43] 100% | residual activity [44] 100%
active: residual activity [5] 34% | Kd (Integrin alpha-L) 0.009 µM

C[C@@]1(Cc2ccc(C#N)cc2)C(=O)N(c2cc(Cl)cc(Cl)c2)c2ncc(C(=O)NC3(c4nc(C5CCC5)no4)CC3)n21 [BI 9446]
inactive: residual activity [1] 100% | inhibition [2] 16.4% | residual activity [3] 100% | residual activity [4] 100% | residual activity [5] 56% | residual activity [6] 97% | residual activity [7] 100% | residual activity [8] 90% | residual activity [9] 90% | residual activity [10] 100% | residual activity [11] 100% | residual activity [12] 100% | residual activity [13] 100% | residual activity [14] 89% | residual activity [15] 100% | residual activity [16] 100% | residual activity [17] 100% | inhibition [18] 15% | residual activity [19] 93% | residual activity [20] 99% | residual activity [21] 100% | residual activity [22] 100% | residual activity [23] 97% | residual activity [24] 100% | residual activity [25] 100% | residual activity [26] 93% | residual activity [27] 89% | residual activity [28] 100% | residual activity [30] 92% | residual activity [31] 100% | residual activity [32] 100% | residual activity [33] 100% | residual activity [34] 100% | residual activity [35] 100% | residual activity [36] 100% | residual activity [37] 86% | residual activity [38] 100% | residual activity [39] 100% | residual activity [40] 100% | residual activity [41] 100% | residual activity [42] 100% | residual activity [43] 100% | residual activity [44] 100%
> 1 µM (not active): Kd (Integrin alpha-L)
active: inhibition [29] 58%

— ChEMBL document CHEMBL4507282, “Data for DCP probe BI-1950” (2021)
